Measurements reported in US20210403924A1, “Method for selecting cells based on CRISPR/Cas-mediated integration of a detectable tag to a target protein” (Hoffmann-La Roche Inc., priority 2018, published 2021).
Structures can show the parent of a compound that is named as a salt.

Tests used:
HEK293A wild-type cells = assay: CellTiter-Glo cell viability assay, titration of antibiotic concentrations (killing curve); assay type: cell-based, human; conditions: HEK293A wild-type cells
Protocol: (§1) HEK293A wild-type cells were treated for 72 h with various concentrations of the antibiotics (a) hygromycin B and (b) puromycin, respectively. Cell viability was determined with the CellTiter-Glo assay.
(§2) The CellTiter-Glo assay was used to determine the number of viable cells in a sample. The method is based on the quantification of the ATP amount as an indicator of metabolically active cells. The CellTiter-Glo Luminescent Cell Viability Assay Kit from Promega was used for the experiments. The CellTiter-Glo reagent was freshly prepared before each experiment. For this purpose, the substrate, which contains inter alia luciferin and a luciferase, was dissolved in the accompanying buffer. After direct addition to the medium of the cells, lysis of the cells occurs first. Viable cells produce ATP in their mitochondria, which is thereby released. In the presence of ATP, the luciferin is converted by the UltraGlo r-luciferase. This produces a stable luminescence signal which is proportional to the amount of ATP present and thus to the number of viable cells.
(§3) The assay was used to optimize transfection and to titrate the optimal antibiotic concentrations of hygromycin B and puromycin for post-transfection selection. In all assays, cells were seeded in a black flat bottom 96-well plate with a transparent bottom. When titrating the antibiotic concentrations, 7,500 cells were seeded per well. The next day, the cells were treated with various concentrations of the antibiotic. After […], the viability of the cells was determined by the assay in which 100 μL of the CellTiter-Glo reagent was added to each well. Subsequently, the plate was shaken on a plate shaker for 2 min. at 200 rpm. After incubation in the dark for 10 minutes, the luminescence signal was measured on the luminometer.

[1] = as above; assay type: cell-based, human; conditions: human
Protocol: as §1, §2, §3

| Compound | cell viability (HEK293A wild-type cells; 20 μg/mL, 72 h) | cell viability expected at selection concentration (HEK293A wild-type cells; 50 μg/mL) | viability at 72 h, 2 μg/mL ([1]; cell viability) [%] | viability at 72 h, 2 μg/mL ([1]; cell viability expected at selection concentration) [%] |
| --- | --- | --- | --- | --- |
| CN[C@H]1C[C@@H](N)[C@H](O)[C@@H](O[C@@H]2O[C@H](CO)[C@H](O)[C@@H]3OC4(O[C@H]23)O[C@H]([C@@H](N)CO)[C@H](O)[C@H](O)[C@H]4O)[C@@H]1O (stereo partly shown) [hygromycin B, Hygromycin B] | less than 20% | about 12% |  |  |
| COc1ccc(C[C@H](N)C(=O)N[C@H]2[C@@H](O)[C@H](n3cnc4c(N(C)C)ncnc43)O[C@@H]2CO)cc1 [puromycin, Puromycin dihydrochloride] |  |  | < 15 | ~12 |
